Experimental data from the supplement of paper PMC12137928.
Where a name gives a salt, the structure may show the parent alone.

System: HCT116
Details: 72 h
Method in brief: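 For IC50 and maximal efficacy, four-parameter Hill fits were used. Input values were CellTiter-Glo luminescence from HCT116 cells seeded at 250 per well in 1536-well plates, normalized to vehicle (0%) and positive control (-100%). Pattern correction followed normalization.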

| Structure (SMILES) | IC50 cell viability (ICRF193 0 nM) [µM] | IC50 cell viability (ICRF193 200 nM) [µM] |
| --- | --- | --- |
| O=C(O)CCCN1CCC(O[C@@H](c2ccc(Cl)cc2)c2ccccn2)CC1 [Bepotastine (Beslilate)] | > 45.8 | > 45.8 |
| COc1c(O)cc2c(c1O)[C@@H]1O[C@H](CO)[C@@H](O)[C@H](O)[C@H]1OC2=O [Bergenin monohydrate] | > 45.8 | > 45.8 |
| N[C@@H]1CCCCN(c2c(F)cc3c(=O)c(C(=O)O)cn(C4CC4)c3c2Cl)C1 [Besifloxacin Hydrochloride] | > 45.8 | > 45.8 |
| CCCC(=O)O[C@]1(C(=O)COC(=O)CC)[C@@H](C)C[C@H]2[C@@H]3CCC4=CC(=O)C=C[C@]4(C)[C@@]3(F)[C@@H](O)C[C@@]21C [Betamethasone butyrate propionate] | > 45.8 | > 45.8 |
| CCCCC(=O)O[C@]1(C(=O)CO)[C@@H](C)C[C@H]2[C@@H]3CCC4=CC(=O)C=C[C@]4(C)[C@@]3(F)[C@@H](O)C[C@@]21C [Betamethasone valerate] | > 45.8 | > 45.8 |
| CC(C[N+](C)(C)C)OC(N)=O (stereo unspecified) [Bethanechol chloride] | > 45.8 | > 45.8 |
| COc1ccc(NC(=O)c2ccc(C(=N)N(C)C)cc2)c(C(=O)Nc2ccc(Cl)cn2)c1 [Betrixaban] | > 45.8 | > 45.8 |
| C[N+]1(C)CCCCC1COC(=O)C(O)(c1ccccc1)c1ccccc1 (stereo unspecified) [Bevonium metilsulfate] | > 45.8 | > 45.8 |
| C=C(c1ccc(C(=O)O)cc1)c1cc2c(cc1C)C(C)(C)CCC2(C)C [Bexarotene] | > 45.8 | > 45.8 |
| CC(C)(Oc1ccc(CCNC(=O)c2ccc(Cl)cc2)cc1)C(=O)O [Bezafibrate] | > 45.8 | > 45.8 |
| C[C@@H](O)[C@H]1C(=O)N2C(C(=O)[O-])=C(SC3Cn4cnc[n+]4C3)[C@H](C)[C@H]12 (stereo partly specified) [Biapenem] | > 45.8 | > 45.8 |
| CCOC(=O)[C@H](CS)NCCN[C@@H](CS)C(=O)OCC [Bicisate dihydrochloride] | > 45.8 | > 45.8 |
| O=C(COCCOCCOCC(=O)Nc1c(I)cc(I)c(C(=O)O)c1I)Nc1c(I)cc(I)c(C(=O)O)c1I [Biliscopin] | > 45.8 | > 45.8 |
| O=C(O)Cc1cccc(-c2cc(CCCCCCc3ccc(O[C@H]4O[C@H](CO)[C@@H](O)[C@H](O)[C@@H]4O)c(-c4cccc(CC(=O)O)c4)c3)ccc2O[C@H]2O[C@H](CO)[C@@H](O)[C@H](O)[C@@H]2O)c1 [Bimosiamose] | > 45.8 | > 45.8 |
| O=C(O)CCCC[C@@H]1SC[C@@H]2NC(=O)N[C@@H]21 [Biotin] | > 45.8 | > 45.8 |
| OC(CCN1CCCCC1)(c1ccccc1)C1CC2C=CC1C2 (stereo unspecified) [Biperiden] | > 45.8 | > 45.8 |
| C/C(=C(\CCOC(=O)c1ccccc1)SS/C(CCOC(=O)c1ccccc1)=C(/C)N(C=O)Cc1cnc(C)nc1N)N(C=O)Cc1cnc(C)nc1N [Bisbentiamine] | > 45.8 | > 45.8 |
| CC(=C(CCOC(=O)C(C)C)SSC(CCOC(=O)C(C)C)=C(C)N(C=O)Cc1cnc(C)nc1N)N(C=O)Cc1cnc(C)nc1N [Bisibutiamine] | > 45.8 | > 45.8 |
| O.O.O=C(O)c1cc(O)c2c(c1)[O][Bi][O]2 [Bismuth(III) gallate basic hydrate] | > 45.8 | > 45.8 |
| Cc1ccc(C(=O)Oc2ccc(C(O)CNC(C)(C)C)cc2OC(=O)c2ccc(C)cc2)cc1 (stereo unspecified) [Bitolterol] | > 45.8 | > 45.8 |

| Structure (SMILES) | IC50 cell viability (ICRF193 0 nM) [µM] | IC50 cell viability (ICRF193 200 nM) [µM] |
| --- | --- | --- |
| CCN1CCN(c2cc(-c3ccc(F)cc3)c3c(n2)CCCCCC3)CC1 [Blonanserin] | > 45.8 | > 45.8 |
| CC(C)(C)NC(=O)N[C@H](C(=O)N1C[C@H]2[C@@H]([C@H]1C(=O)NC(CC1CCC1)C(=O)C(N)=O)C2(C)C)C(C)(C)C (stereo partly specified) [Boceprevir] | > 45.8 | > 45.8 |
| CCC(=O)O[C@@H]1C=C2CC[C@@H]3[C@H](CC[C@]4(C)[C@@H](OC(=O)CC)CC[C@@H]34)C2CC1 (stereo partly specified) [Bolandiol dipropionate] | > 45.8 | > 45.8 |
| C=CCCCCCCCCC(=O)O[C@H]1CC[C@H]2[C@@H]3CCC4=CC(=O)C=C[C@]4(C)[C@H]3CC[C@]12C [Boldenone Undecylenate] | > 45.8 | > 45.8 |
| CC(=O)/C=C/C=C1/C2CCC(C2)C1(C)C (stereo unspecified) [Bornelone] | > 45.8 | > 45.8 |
| COc1ccccc1Oc1c(NS(=O)(=O)c2ccc(C(C)(C)C)cc2)nc(-c2ncccn2)nc1OCCO [Bosentan] | > 45.8 | > 45.8 |
| O=c1[nH]c(=O)n([C@@H]2O[C@H](CO)[C@@H](O)[C@@H]2O)cc1/C=C/Br [Bravavir] | > 45.8 | > 45.8 |
| Brc1c(NC2=NCCN2)ccc2nccnc12 [Brimonidine] | > 45.8 | > 45.8 |
| CCN[C@H]1CN(CCCOC)S(=O)(=O)c2sc(S(N)(=O)=O)cc21 [Brinzolamide] | > 45.8 | > 45.8 |
| CCC[C@@H]1CC(=O)N([C@@H](CC)C(N)=O)C1 [Brivaracetam] | > 45.8 | > 45.8 |
| CC(C)C(Br)C(=O)NC(N)=O (stereo unspecified) [Bromisovalum] | > 45.8 | > 45.8 |
| Cc1nnc2n1-c1sc(Br)cc1C(c1ccccc1Cl)=NC2 [Brotizolam] | > 45.8 | > 45.8 |
| COc1cc2c(cc1OC)C13CC[N+]4([O-])CC5=CCOC6CC(=O)N2C1C6C5CC34 (stereo unspecified) [Brucine-N-oxide] | > 45.8 | > 45.8 |
| CC(C)(S)C(=O)N[C@@H](CS)C(=O)O [Bucillamine] | > 45.8 | > 45.8 |
| CCCCC1C(=O)NC(=O)N(C2CCCCC2)C1=O (stereo unspecified) [Bucolome] | > 45.8 | > 45.8 |
| CCCC1O[C@@H]2C[C@H]3[C@@H]4CCC5=CC(=O)C=C[C@]5(C)[C@H]4[C@@H](O)C[C@]3(C)[C@]2(C(=O)CO)O1 (stereo partly specified) [Budesonide] | > 45.8 | > 45.8 |
| CCCCNC(=N)NC(=N)N [Buformin] | > 45.8 | > 45.8 |
| CC(NC(C)(C)C)C(=O)c1cccc(Cl)c1 (stereo unspecified) [Bupropion hydrochloride] | > 45.8 | > 45.8 |
| CCOC(=O)c1cnc2cc(OCC(C)C)c(OCC(C)C)cc2c1O [Buquinolate] | > 45.8 | > 45.8 |
| O=C1CC2(CCCC2)CC(=O)N1CCCCN1CCN(c2ncccn2)CC1 [Buspirone] | > 45.8 | > 45.8 |

More lines, now with the values ahead:

| IC50 cell viability (ICRF193 0 nM) [µM] | IC50 cell viability (ICRF193 200 nM) [µM] | Structure (SMILES) |
| --- | --- | --- |
| > 45.8 | > 45.8 | NS(=O)(=O)c1cc2c(cc1Cl)NC(Cc1ccccc1)NS2(=O)=O (stereo unspecified) [Benzylhydrochlorothiazide] |
| > 45.8 | > 45.8 | O=C(OCc1ccccc1)c1ccc(O)cc1 [Benzylparaben] |
| > 45.8 | > 45.8 | CNCCc1ccccn1 [Betahistine mesylate] |
| > 45.8 | > 45.8 | C[N+](C)(C)CC(=O)O [Betaine] |
| > 45.8 | > 45.8 | O=C(O)CCNC(=O)c1ccccc1 [Betamipron] |
| > 45.8 | > 45.8 | C/N=C(\NC)NCc1ccccc1 [Bethanidine sulfate (2:1)] |
| > 45.8 | > 45.8 | O=C(O)CNC(=O)CNC(=O)CNC(=O)CSC(=O)c1ccccc1 [Betiatide] |
| > 45.8 | > 45.8 | COc1ccc(CCNCC(O)COc2cccc(C)c2)cc1OC (stereo unspecified) [Bevantolol hydrochloride] |
| > 45.8 | > 45.8 | CCOCCn1c(C2CCN(CCc3ccc(C(C)(C)C(=O)O)cc3)CC2)nc2ccccc21 [Bilastine] |
| > 45.8 | > 45.8 | CCNC(=O)CCC/C=C\C[C@@H]1[C@@H](/C=C/[C@@H](O)CCc2ccccc2)[C@H](O)C[C@@H]1O [Bimatoprost] |
| > 45.8 | > 45.8 | CC(C)NCC(O)COc1ccc(COCCOC(C)C)cc1 (stereo unspecified) [Bisoprolol fumarate] |
| > 45.8 | > 45.8 | CC[N+](C)(C)Cc1ccccc1Br [Bretylium tosylate] |
| > 45.8 | > 45.8 | Cc1ccc(Sc2ccccc2N2CCNCC2)c(C)c1 [Brintellix] |
| > 45.8 | > 45.8 | Nc1c(CC(=O)O)cccc1C(=O)c1ccc(Br)cc1 [Bromfenac sodium sesquihydrate] |
| > 45.8 | > 45.8 | CN(Cc1cc(Br)cc(Br)c1N)C1CCCCC1 [Bromhexine hydrochloride] |
| > 45.8 | > 45.8 | CN(C)CCOC(c1ccccc1)c1ccc(Br)cc1 (stereo unspecified) [Bromodiphenhydramine] |
| > 45.8 | > 45.8 | CN(C)CCC(c1ccc(Br)cc1)c1ccccn1 (stereo unspecified) [Brompheniramine (maleate)] |
| > 45.8 | > 45.8 | Nc1nc(=O)c(Br)c(-c2ccccc2)[nH]1 [Bropirimine] |
| > 45.8 | > 45.8 | CC(C)=C/C(C)=N/Nc1nncc2ccccc12 [Budralazine] |
| > 45.8 | > 45.8 | CC(C)(C)NCC(O)COc1ccccc1OCC1CCCO1 (stereo unspecified) [Bufetolol] |
| > 45.8 | > 45.8 | CCCCOc1ccc(CC(=O)NO)cc1 [Bufexamac] |
| > 45.8 | > 45.8 | CCCCNc1cc(C(=O)O)cc(S(N)(=O)=O)c1Oc1ccccc1 [Bumetanide] |
| > 45.8 | > 45.8 | Cc1ccc(Cl)c(OCC(O)CNC(C)(C)C)c1 (stereo unspecified) [Bupranolol] |
